Series [1] concerns hBLECs. In words: Metabolic integrity of OligoGM1 after hBLEC transport (HPTLC autoradiography). The series is classed as in vitro ADME, human. The following applies: basolateral compartment, detection limit 15 dpm. From the text:
Since OligoGM1 is tritium labeled at position 6 of the external galactose, any possible galactosidase activity present on the plasma membrane of hBLECs can result in external galactose removal, leading to loss of radioactivity from the penta-saccharide. Radiolabeled galactose may pass the BBB or may enter into the cells and be recycled for the biosynthesis of new glycans, so that the radioactivity found may correspond to the galactose or to any possible new glycan rather than to the original oligosaccharide.
Thus, to test the integrity of the OligoGM1 molecule after hBLEC crossing, OligoGM1 solution was prepared in RH buffer at a final concentration of 100 μM plus 1 × 10^6 dpm of tritium-labeled OligoGM1. For the apical–basolateral transport experiment, the hBLEC insert’s apical side was filled with 0.5 mL of the drug solution and placed on 1.5 mL RH buffer-filled well of a 12-well plate. After 60 min, the solution of the receiving compartment (about 1.5 mL) was collected and 200 μL were combined with 5 mL of ULTIMA GOLD liquid (PerkinElmer), shaken, and counted for 20 min by a liquid scintillation analyzer (TRI-CARB 2100TR, Packard).
To verify that the counted radioactivity indeed corresponded to [^3H]OligoGM1, 0.5 mL of receiving compartment solution was lyophilized and suspended in 0.5 mL of methanol. […]

Series [2] concerns hBLECs. In words: Fate of OligoGM1 in hBLECs (cell-associated radioactivity). The series is classed as in vitro ADME, human. The procedure:
The possible internalization of OligoGM1 in hBLECs was determined by measuring the radioactivity associated to the cells. Briefly, at the end of direct transport, apical and basolateral solutions were collected, hBLEC filters were washed with RH buffer, and cells were detached by trypsin and lysed with 1mM Na3VO4, 1 mM PMSF, 2% (v/v) aprotinin, and 1% (v/v) IP in cold PBS. At this point, the lysed cell solution was counted to measure the radioactivity. All the cell lysates were combined with 5 mL of ULTIMA GOLD liquid (PerkinElmer), shaken, and counted for 20 min by liquid scintillation analyzer (TRI-CARB 2100TR, Packard). The resulting dpm radioactivity measures were used to estimate the molecule quantity.

The subject of series [3] is human brain-like endothelial cells (hBLECs). In words: Direct transport (apical to basolateral, A → B) across the hBLEC monolayer: Pe and Papp. The series is classed as in vitro ADME. The following applies: for endothelial permeability Pe (A → B): after 60 min, hBLEC monolayer. The procedure: (§1) Prior to the experiments, in order to verify the hBLECs’ monolayer integrity and stability, the permeability parameters were verified as previously reported. Briefly, 1.5 mL Ringer–Hepes solution (RH) (150 mM NaCl, 5.2 mM KCl, 2.2 mM CaCl2, 0.2 mM MgCl26H2O, 6 mM NaHCO3, 5 mM HEPES, pH: 7.4) was added to empty wells of a 12-well plate. Filter insert containing confluent monolayers of hBLECs or not (control) were subsequently placed in the 12-well plate, filled with 0.5 mL RH buffer containing the fluorescent integrity marker LY (50 μM), and then placed on an orbital shaker (150 rpm, Heidolph Titramax 100) at 37 °C in a humidify atmosphere of 95% air/5% CO2. Every 20 min for 1 h, filter inserts were withdrawn from the receiver compartment and placed in the next one. To verify the quantity of LY, at the end of the experiments, aliquots from the donor solution were taken at the end of the experiments and the fluorescence was quantified using a quantification curve of LY as referee. At least three inserts with cells and three without cells were tested in each permeability measurement. The fluorescence was measured using a luminescence spectrometer (LS 50B, Perkin Elmer), using the following excitation/emission wavelength (nm) settings: 432/538. Pe parameters were calculated according to the formulas shown in the Supplementary Information (Equations (7)–(10)). In parallel, as positive control for breakdown of hBLECs, D-mannitol, was used at a concentration of 1.4 M. At this concentration, mannitol induces an osmotic shock, and thus an increase in paracellular permeability.
Transport experiments were carried out by adding tritium-labeled GM1 or OligoGM1 (1 × 10^6 dpm) to cold GM1 or OligoGM1, respectively, at different concentrations, as specified below.
To identify and quantify the GM1 or OligoGM1 molecules in every transport experiment, aliquots from apical A (5 μL) and basolateral B (200 μL) compartments were collected at indicated time points and combined with 5 mL of ULTIMA GOLD liquid (PerkinElmer), shaken, and counted for 20 min by liquid scintillation analyzer (TRI-CARB 2100TR, Packard). Resulting radioactivity measures were used to estimate the quantity of the molecules. Experiments were performed on an agitation plate at 37 °C (150 rpm, Heidolph Titramax 100) in a humidify atmosphere of 95% air/5% CO2. At least three inserts with cells were tested in each transport experiment for each condition.
To examine flux from apical to basolateral compartments (A → B), 1.5 mL RH buffer was added to empty wells of a 12-well plate. Following this, the hBLEC filter was placed in the same 12-well plate and filled with 0.5 mL RH buffer containing 1 × 10^6 dpm of tritiated [^3H]GM1 or [^3H]OligoGM1 plus 50 μM of cold GM1 or OligoGM1 (Figure S3b).
To establish the time dependence of the transport experiments, hBLEC inserts filled with OligoGM1 were transferred into a new receiver well plate filled with fresh RH buffer every 20 min up to 240 min. The hBLECs’ properties, integrity, and stability were maintained up to 240 min in the transport experiments with RH buffer in the upper and basolateral side (see [28] and Figure S4).
To establish the dose dependence in the transport experiments, 1 × 10^6 dpm of tritiated [^3H]OligoGM1 plus 5, 10, 50, 100, and 300 μM OligoGM1 solutions were prepared and employed as described above. The hBLECs inserts were transferred into a new RH-filled receiver well plate every 20 min up to 60 min. […]
To evaluate the possible active transport involvement, the transport of OligoGM1 from apical to basolateral (A → B) compartments was performed at 4 °C, with the aim of inhibiting the active transport mechanism at low temperature. […]

Series [4] has the same test system. The series can be described thus: Inverse transport (basolateral to apical, B → A) across hBLECs and efflux ratio. The series is classed as in vitro ADME. The method, then:
For the inverse transport study (related to basolateral → apical flux, B → A), 1.5 mL of 1 × 10^6 dpm of tritiated [^3H]OligoGM1 plus 50 μM OligoGM1 in RH buffer were added to an empty well of a 12-well plate (Figure S3c). Every 20 min up to 60 min, the hBLEC filter filled with 0.5 mL RH buffer was removed and replaced with a new filter with fresh RH buffer.
The apparent permeability, efflux ratio, and endothelial permeability were calculated to estimate the absorption processes of drugs, to predict implication of active transport in the process of drugs absorption, and to more accurately appreciate the transport of a drug across an endothelial barrier, respectively. Detailed information on the equations used to calculate the permeability parameters are reported in the Supplementary Information. […]
where (∆Q/∆t) (μmol/sec) is the rate of permeation (quantity per second) of a molecule across the cell layer, C0 (μmol/cm3) is the donor compartment concentration at time zero and S (cm2) is the area of […]
In the transwell insert system there are two compartments and, analyzing the absorption of a substance, the apparent permeability index can be obtained for the apical to basolateral transport, Papp A → B, and for the inverse, basolateral to apical transport Papp B → A.
To define Papp (1), the Fick's law could be used, which describes the transport of substances through a semipermeable membrane. Given that the initial concentration of the solute in the donor compartment is much higher than the one in the receiver compartment (equal to 0 at t0), and assuming that the solute equally partitions in the two compartments, for small variation of C0, it is possible to integrate and simplify the Fick’s equation to obtain as follows: […]
where ∆Q/∆t corresponds to the amount of solute that crosses the membrane over time, D is the diffusion coefficient of the substance in water, S is the membrane surface, h its thickness and C0 is the concentration of the solute which approximates the initial concentration C0.
The equation (2) can be rewritten as: […]

The conditions of series [5]: cited from earlier work.
A further series concerns MRPs. The series can be described thus: ABC transporter competition assay (Caco-2 pump out), CMFDA efflux. The following applies: Caco-2 cells, positive control. In general terms: Caco-2 cells form a polarised layer with tight junctions and transporters.
Series [6] has as its system hBLECs. The series can be described thus: Toxicity on hBLECs / monolayer integrity by LY permeability in combination with test substance. The series is classed as cell-based, human. The procedure: as §1
To evaluate the toxicity of GM1 and OligoGM1, the LY endothelial permeability (Pe) and apparent permeability (Papp) were considered for evaluation of hBLEC monolayer integrity after administration of compounds.
To examine the LY permeability, 1.5 mL of RH buffer was added to empty wells of a 12-well plate, then hBLEC filters were placed in the 12-well plate and filled with 0.5 mL RH buffer containing 50 μΜ LY plus OligoGM1 or GM1 at an appropriate test concentration (from 5 to 300 μΜ). The hBLEC inserts were moved every 20 min to a new RH-filled well up to 60 min. At the end of the incubation period, solutions were collected from apical and basolateral compartments, LY was quantified, and Papp was calculated as reported in the Supplementary Information (Equation (1)) and previously mentioned.

The mark [7] stands for this setting: 1.4 M, osmotic shock, positive control for leakage.

Experimental for MRPs: Briefly, Caco-2 cells in 96-well plates were washed once with RH buffer and incubated for 120 min with 10 µM R123 or for 15 min with 0.5 µM CMFDA. R123 and CMFD are substrates for the major efflux pumps expressed by BBB and intestine cells, i.e., P-gp/BCRP and MRPs, respectively. After the incubation period, Caco-2 cells were washed twice with RH buffer with or without test compounds (OligoGM1 at 10, 50, and 100 µM). The rate out (Kout) of Caco-2 cells for fluorescent dyes was monitored by fluorescence measurement (λex = 501 nm and λem = 538 nm for R123; λex = 485 nm and λem = 538 nm for CMFDA) using a microplate fluorescent reader (BioTek, H1, Vermont, Winooski). The amount of dye expelled from the cells was measured at 37 °C and every 5 min for one hour for R123 and every 2 min for 30 min for CMFDA. The rate out of the dye from cells was calculated as the slope of the curve of the cumulative amount of dye against the time (Kout = ∆pmol⁄∆t) and compared with the value in the presence of test compounds.

Regarding “[6-^3H]β-Gal-(1-3)-β-GalNAc-(1-4)-[α-Neu5Ac-(2-3)]-β-Gal-(1-4)-β-Glc-Cer [[^3H]OligoGM1]”, the “metabolic stability after hBLEC crossing” value with hBLECs [1] is “metabolically stable”. Also, in the series on hBLECs [2] (50 μM apical, 20, 40, 60, 240 min, cell lysate), the “amount found within the cells (internalization)” value is “no detectable amount”. Moreover, in the series with hBLECs [2] (50 μM apical, each time point 20, 40, 60, 240 min), the “radioactivity associated with apical and basolateral solutions” value was “about 99%”.

On to Lucifer yellow [LY, reference compound], for which, in series [3] (50 μM LY, hBLEC integrity check (Figure 2)), the “apparent permeability Papp (A → B) of LY alone” value was 1.25 ± 0.123 ×10^−5 cm/s. The “Papp A>B at 4 °C” value in series [3] (50 μM, 60 min, 4 °C (Figure 6d)) is 1.04 ± 0.068 x 10^-5 cm/sec. For the same molecule, the “Papp A>B at 37 °C” value in series [3] (50 μM, 60 min, 37 °C, temperature experiment (Figure 6d)) is reported as 1.27 ± 0.072 x 10^-5 cm/sec. The “endothelial permeability Pe (A → B)” value in series [3] (50 μM) was 0.65 ± 0.041 ×10^−3 cm/min. Further, in series [4] (50 μM in basolateral compartment, 60 min (Figure 7)), the “Papp B>A” value was 1.59 ± 0.27 x 10^-5 cm/sec. In addition, the “Efflux Ratio (E) = Papp B>A / Papp A>B” value in series [4] (50 μM, 60 min, hBLECs) worked out at 1.25. Further, in series [5], the “hydrodynamic radius (r)” value is given as 4.9 Å.

For the molecule `CN(C)C(=O)CCSC(SCCC(=O)O)c1cccc(/C=C/c2ccc3ccc(Cl)cc3n2)c1` (centres unmarked) [MK571, reference compound], in the series with MRPs, the “decrease of outgoing rate (Kout) of CMFDA” value is given as “more than 30%”.

With `OC[C@H]1O[C@H](OC[C@H]2O[C@H](OC[C@H]3O[C@H](O[C@]4(CO)O[C@H](CO)[C@@H](O)[C@@H]4O)[C@H](O)[C@@H](O)[C@@H]3O)[C@H](O)[C@@H](O)[C@H]2O)[C@H](O)[C@@H](O)[C@H]1O` [stachyose], the “hydrodynamic radius (r)” value in series [5] is recorded as 6.5 Å.

Consider `CCCCCCCCCCCCCC=CC(O)C(COC1OC(CO)C(OC2OC(CO)C(OC3OC(CO)C(O)C(OC4OC(CO)C(O)C(O)C4O)C3NC(C)=O)C(OC3(C(=O)O)CC(O)C(NC(C)=O)C(C(O)C(O)CO)O3)C2O)C(O)C1O)NC(=O)CCCCCCCCCCCCCCCCC` (stereo not drawn) [GM1, β-Gal-(1-3)-β-GalNAc-(1-4)-[α-Neu5Ac-(2-3)]-β-Gal-(1-4)-β-Glc-(1-1)-Cer, reference compound], for which, in series [3] (50 μM), the “endothelial permeability Pe (A → B)” value was 0.028 ± 0.007 ×10^−3 cm/min. Further, the “effect on LY Pe and Papp (toxicity to hBLECs)” value in the series on hBLECs [6] (10, 50, 100 and 300 μM with 50 μM LY, 60 min and over time (20, 40, 60 min)) was “no variations of LY Pe and Papp were observed”.

`OC[C@@H](O)[C@@H](O)[C@H](O)[C@H](O)CO` [D-mannitol]: in the series on hBLECs [6] (setting [7]), the “rise of LY Papp on co-incubation” value worked out at 4 fold and the “rise of LY Pe on co-incubation” value came out at 20 fold.

In the case of 6′-R-maltosyl-maltotrioside, in series [5], the “hydrodynamic radius (r)” value was 8.7 Å.
